Where a SMILES comes first, the peptide text is derived from it. [ ]: non-standard residue; d: D form.
Key:
[1] = tested on: intestinal absorption of cholesterol; experiment: fecal dual-isotope cholesterol absorption assay; format: in vivo, LDLr−/− mice; settings: 180 μM in drinking water, 2-wk treatment, WD
Procedure: In vivo cholesterol absorption assay. This experiment was carried out courtesy of Carol S. Ryan, Debra J. Search, Ricardo A. Garcia, and David A. Gordon at Bristol Myers Squibb (Hopewell, N.J., USA). To assess the effects of c[wLwReQeR] (SEQ ID NO:11) on intestinal absorption of cholesterol, male LDLr^−/− mice (Jackson Laboratories) ranging from 8-10 weeks old were acclimated to single housing in standard solid bottom bedded cages for at least one week at BMS facilities. During the acclimation period, the mice were fed a chow diet ad libitum. At the start of the treatment period and for the duration of the study, mice were switched to high-fat, high-cholesterol Western diet (Research Diets D12108C) containing 1.25% cholesterol and 20% fat ad libitum. The peptide was administered in the drinking water ad libitum as a solution with 1% sucrose at 180 μM (˜35 mg/kg/day). […]
Following a 2-wk treatment period, cholesterol absorption was measured using a dual fecal isotope ratio method. […] Plasma (˜20 μl) was added to 5 ml of Opti-fluor Scintillation cocktail (Packard Bioscience #6013199) and counted on ^3H and ^14C channels to evaluate cholesterol efflux. Radioactivity in feces was analyzed as follows: for each animal, feces recovered over the 48 hours was dried overnight at 50° C. and 0.1 gram of dried feces was transferred to a glass tube. […]

[2] = Pharmacokinetics of c[wLwReQeR] via different routes of administration; format: in vivo, mice
Procedure: Pharmacokinetics. These experiments were carried out in part courtesy of Carol S. Ryan, Debra J. Search, Ricardo A. Garcia, and David A. Gordon at Bristol Myers Squibb (Hopewell, N.J., USA). Male Balb/C or C57BL/6 mice (20 g) were maintained on a chow diet. The cyclic peptide c[wLwReQeR] (SEQ ID NO:11) was dissolved in PBS containing 1% sucrose or 95% 50 mM acetate buffer containing 10% sucrose, 5% DMSO (pH=4), and sterile filtered through a 0.22-μm syringe filter before injection. Mice were fasted beginning 12 h before dosing, and continued the fast until after the 8-h time point blood draw was completed. Groups of three mice received a dose of the cyclic peptide via […] (5 mL/kg for subcutaneous and intraperitoneal, 10 mL/kg for oral gavage). Blood was drawn (30-60 μL) from the retro-orbital sinus into a heparinized capillary tube before dosing (0 min) and at different intervals from 30 min to 8 h after dosing. Plasma was isolated immediately from the whole blood by centrifugation at 5,000 rpm for 10 min at 4° C. Immediately after the plasma was isolated, 20 μL of plasma was acidified with 20 μL of 5% TFA to break peptide-protein interactions, and 40 μL of acetonitrile was then added. After vortexing for 30 s, the mixture was centrifuged at 13,000 rpm for 10 min at 4° C. The resultant supernatant was analyzed by using LC-MS SIM as described below.
LC-MS SIM quantitation of peptide concentration. Cyclic peptide concentrations were quantified by using reverse-phase HPLC coupled with mass spectrometry. The electrospray ionization mass spectrometry measurements were carried out in the positive ionization mode using a single quadrupole mass spectrometer (Hewlett Packard HP 1100 MSD series). 10 or 20 μL of sample were injected through a C8 reverse-phase column (Zorbax 300-SB, 4.6 mm×150 mm, 5 μm) using a flow rate of 1.5 mL/min and binary gradients of solvent A (99% H2O, 0.1% formic acid, 0.01% TFA) and solvent B (99% acetonitrile, 0.1% formic acid, 0.01% TFA). Mass detection was carried out in the selected ion monitoring (SIM) mode for the positive molecular ion, with the optimized fragmentor and capillary voltages of 180 V and 5 kV, respectively. The selected monitoring mass for cyclic peptide c[wLwReQeR] (SEQ ID NO:11) was 592.8 ([M+2H]^2+). For quantitative calibration, standard curves were established using mouse EDTA-anticoagulated plasma spiked with various concentrations of the peptide. The calibration curve was established by using linear fitting of the data, with correlation coefficient ≥0.98.

[3] = tested on: gut microbiota metabolites; experiment: fecal SCFA and amino acid measurements (LC-MS); format: in vivo, LDLr−/− mice
Procedure: SCFA and amino acid measurements. Fecal SCFA and amino acid content was measured by liquid chromatography-mass spectrometry (LC-MS). The fecal samples were weighed and placed into 2 ml Omni tubes. Ethanol was added to bring the volume to 350 μl. Next, 4 μl of 500 μM d-FA-mix and 20 μl of 1 mM 3CHPA were added to each sample as internal standard. The samples were homogenized using an Omni bead beater at the speed of 4.5 m/s for 30 sec, and then centrifuged at 13,000 rpm for 15 min. 90 μl of the supernatants was transferred into glass HPLC vials. 30 μl of freshly prepared 4×3NPH solution (160 mM 3-nitrophenylhydrazine, 150 mM EDC, pyridine 12% vol, 50% acetonitrile) was added to each sample and the reactions were held at room temperature for 30 min. 2 μl of the sample was injected into the LC-MS (Agilent 1290 HPLC, 6550 qTOF). The concentration of each SCFA and amino acid was calculated based on a standard curve and normalized by the internal control and the feces weight.

CC(C)C[C@@H]1NC(=O)[C@@H](Cc2c[nH]c3ccccc23)NC(=O)[C@H](CCCNC(=N)N)NC(=O)[C@@H](CCC(=O)O)NC(=O)[C@H](CCC(N)=O)NC(=O)[C@@H](CCC(=O)O)NC(=O)[C@H](CCCNC(=N)N)NC(=O)[C@@H](Cc2c[nH]c3ccccc23)NC1=O [c[wLwReQeR]] (cyclo([dW]L[dW]R[dE]Q[dE]R))
absorption of dietary cholesterol [1]: did not reduce
Tmax ([2]; male, C57BL/6, mouse, plasma, oral gavage, 15 mg/kg, C57B1/6): < 3 h
AUC(0-t) ([2]; male, C57BL/6, mouse, plasma, oral gavage, 15 mg/kg, C57B1/6, read-out: AUC 0-24 h): < 3 nM·h
Cmax ([2]; male, mouse, plasma, ip, 16-mg/kg i.p., BALB/c mice, read-out: peak plasma concentration): 13 µM
peptide in plasma after oral gavage ([2]; oral gavage, limit of detection=3 nM): not detectable
levels of fatty acids containing 4-6 carbons, including butyrate ([3]; fecal samples, two-week treatment): increased levels
levels of tryptophan and phenylalanine in the feces ([3]; feces, two-week course): higher levels
